Assay results published in article PMC6213020, “Identification of a Novel PPAR-γ Agonist through a Scaffold Tuning Approach” (International Journal of Molecular Sciences, 2018).

Key:
[1] = target: T1, PPAR-γ (Homo sapiens, UniProt P37231); assay: cell-based PPAR transactivation (luciferase) assay, PPAR-γ; details: for activation at 10 µM: 24 h, compounds 10 µM, relative to maximum activation with pioglitazone (10 µM), PPAR-Luc in CV-1 cells, read-out: % max PPAR-γ
T1 construct: host or cells: CV-1
T1 sequence (P37231 1-505): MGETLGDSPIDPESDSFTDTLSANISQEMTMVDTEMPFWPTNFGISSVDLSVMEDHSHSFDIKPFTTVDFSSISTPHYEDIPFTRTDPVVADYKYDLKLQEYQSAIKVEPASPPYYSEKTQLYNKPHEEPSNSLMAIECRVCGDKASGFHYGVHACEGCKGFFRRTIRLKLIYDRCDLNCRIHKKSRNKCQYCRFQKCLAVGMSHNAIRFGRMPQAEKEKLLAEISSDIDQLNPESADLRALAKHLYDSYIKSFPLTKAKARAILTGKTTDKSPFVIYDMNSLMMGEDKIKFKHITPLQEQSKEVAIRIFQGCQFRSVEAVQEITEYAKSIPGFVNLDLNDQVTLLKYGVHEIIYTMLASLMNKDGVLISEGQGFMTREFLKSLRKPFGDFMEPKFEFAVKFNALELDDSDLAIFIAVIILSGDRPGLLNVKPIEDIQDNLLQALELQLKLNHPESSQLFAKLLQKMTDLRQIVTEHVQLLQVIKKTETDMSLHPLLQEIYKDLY
Method: The PPAR activities of the synthesized dichloroanilide-linked indole analogs were assessed using a standard cell-based transactivation assay in CV-1 cells. GW7647 [42], pioglitazone, and GW0742 [43] were used as positive controls for PPAR-α, -γ, and -δ, respectively. These three positive controls presented the maximum activation for each PPAR subtype. The activity of the compounds was presented as the activation percentage (%) relative to the maximum values of the positive controls at the indicated concentrations.
Transient transfection and luciferase assay was carried out. CV-1 cells were seeded in 48-well plates at a density of 1.5 × 10^5 cells/well in Dulbecco’s modified Eagle’s medium (DMEM) with containing 10% fetal bovine serum (FBS). The cells were transiently transfected with plasmid mixtures containing PPAR-α/γ expression vector and tk-PPRE-luciferase (Luc) vector for 6 h and then treated with the samples for 24 h. HEK293t cells were seeded in a 60-mm dish at a density of 1.5 × 10^6 cells/dish. After transfection with the plasmid mixtures containing PPAR-δ expression vector and Luc vector for 6 h, the cells were transferred to a 96-well plate and treated with the samples. To normalize the transfection efficiency, a β-galactosidase plasmid was cotransfected. The luciferase activity in the cell lysates was measured using a luciferase assay system (Promega Corp., Madison, WI, USA), and the β-galactosidase activity was determined by measuring the absorbance at 410 nm using an ELISA plate reader. The data were expressed as the relative luciferase activity divided by the β-galactosidase activity. All constructs were kindly gifted by Dr. Ronald M. Evans at The Salk Institute (La Jolla, CA, USA).

[2] = target: T2, PPAR-α (Homo sapiens, UniProt Q07869); assay: TR-FRET LanthaScreen PPAR coactivator recruit assay, PPAR-α (PGC1a peptide); type: biochemical
T2 construct: purchased Invitrogen / Thermo Fisher Scientific (assay service)
T2 sequence (Q07869 239-466 limits assumed): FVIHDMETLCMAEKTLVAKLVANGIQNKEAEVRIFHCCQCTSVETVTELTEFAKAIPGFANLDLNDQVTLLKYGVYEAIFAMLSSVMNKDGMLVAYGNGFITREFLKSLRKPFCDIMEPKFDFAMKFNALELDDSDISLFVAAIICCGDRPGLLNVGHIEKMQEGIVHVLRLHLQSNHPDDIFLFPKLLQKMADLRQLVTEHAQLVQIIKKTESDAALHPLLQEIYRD
Text: Binding of agonist to the PPAR LBD causes a conformational change around helix 12 in the LBD, resulting in higher affinity for the coactivator peptide. When the terbium label on the anti-GST antibody complexed with PPAR is excited at 340 nm, energy is transferred to the fluorescein label on the coactivator peptide and detected as emission at 520 nm. […] Based on the biology of the PPAR-coactivator peptide interaction, this ligand EC50 is a composite value representing the amount of ligand required to bind to receptor, effect a conformational change, and recruit coactivator peptide. Potency of compounds show similar order to their activity (Table 3). […] Ligands such as TZDs show little or no binding to PPAR-δ. Compound 11 and 15 have ortho or meta substituted benzoic acid as an acidic head group. Their acidic head groups might seem to be too large to fit within the narrow PPAR-δ pocket. In contrast, the compound 1 and 2 contains an acetic acid head group that complements the narrow PPAR-δ ligand binding. […] The potency and selectivity of compound 11 could be explained by harmonization of steric effect of acidic head group, length and rigidity of hydrophobic tail, and properly tuned aromatic linker system.
EC50 of compounds were determined by recruitment of transcriptional coactivators using the TR-FRET based Lanthascreen coactivator assays (Invitrogen, Carlsbad, CA, USA). Which was serviced by Thermo Fisher Scientific (Medicon, WI, USA) according to the LanthaScreen TR-FRET coregulator protocol and assay conditions. Coregulator peptide PGC1a, TRAP220/DRIP2 and C33 was used for the coactivator recruit assay of PPAR-α, -γ, and -δ, respectively.

| activation at 10 µM [1] | EC50 [2] | PPAR-γ activity relative to that of pioglitazone ([1]; cell-based reporter assay) | SMILES |
| --- | --- | --- | --- |
| 74.5 ± 0.94% | 16.9 µM |  | O=C(COc1ccc2ccn(Cc3ccccc3C(=O)O)c2c1)Nc1ccc(Cl)cc1Cl [Compound 13, 2-((6-(2-((2,4-Dichlorophenyl)amino)-2-oxoethoxy)-1H-indol-1-yl)methyl)benzoic acid] |
| 189.2 ± 1.67% | 3.87 µM | approximately 2 fold | O=C(COc1ccc2c(ccn2Cc2ccccc2C(=O)O)c1)Nc1ccc(Cl)cc1Cl [Compound 12, 2-((5-(2-((2,4-Dichlorophenyl)amino)-2-oxoethoxy)-1H-indol-1-yl)methyl)benzoic acid] |
| 126.5 ± 0.92% | > 100 µM |  | O=C(COc1ccc2ccn(Cc3cccc(C(=O)O)c3)c2c1)Nc1ccc(Cl)cc1Cl [Compound 15, 3-((6-(2-((2,4-Dichlorophenyl)amino)-2-oxoethoxy)-1H-indol-1-yl)methyl)benzoic acid] |
| 93.2 ± 0.59% | > 100 µM |  | O=C(COc1ccc2c(c1)c(Cc1ccccc1)cn2Cc1ccccc1C(=O)O)Nc1ccc(Cl)cc1Cl [Compound 18, 2-((3-Benzyl-5-(2-((2,4-dichlorophenyl)amino)-2-oxoethoxy)-1H-indol-1-yl)methyl)benzoic acid] |
